Reference: the NIST ThermoML archive (doi:10.1016/j.jct.2014.08.010)
Numbers after ± are expanded uncertainties.

Assays:
[1] = DTA
[2] = Molar enthalpy of transition or fusion; conditions: DSC

Row | SMILES | Triple point temperature ([1]; Crystal) [K] | Triple point temperature ([1]; Nematic liquid crystal) [K] | Molar enthalpy of transition or fusion ([2]; Crystal) [kJ/mol] | Molar enthalpy of transition or fusion ([2]; Nematic liquid crystal) [kJ/mol]
1 | CCCCCCCc1ccc(-c2ccc(C#N)cc2)cc1 [4'-heptyl-4-biphenylcarbonitrile] | 305.15 ± 0.5 | 316.15 ± 0.5 | 24.4 ± 0.72 | 0.83 ± 0.16
2 | CCCCCc1ccc(-c2ccc(C#N)cc2)cc1 [4'-n-pentyl-4-biphenylcarbonitrile] | 297.55 ± 0.5 | 308.65 ± 0.5 | 13.7 ± 0.45 | 0.49 ± 0.15
